# Like-named read-outs stand apart in the source and are kept apart here.
# How the values were obtained:
# δ-opioid receptor [1] = molecular target: T1, δ-opioid receptor (Homo sapiens, UniProt P41143); assay: Scintillation screening assay for δ-opioid receptor binding ([3H]bremazocine); settings: cloned human receptor in CHO cell membranes, [3H]bremazocine 2.4 nM; for inhibition at 25 µM: read-out: δ-Opioid Receptor Binding (% Inhibition), % I @ 25 μM
# T1 construct: purchased Receptor Biology, Baltimore, Md; host or cells: CHO cells (membranes)
# Text: Scintillation Screening Assay for δ-Opioid Receptor Binding
# This is a receptor based screen to detect the competitive binding of test compounds at the δ-opioid receptor against the radioligand, [^3H]bremazocine (S.A.=25.5 Cl/mmol, Dupont/NEN, Cambridge, Mass.). Unknown compounds that bind to the same receptor as the radioligand will compete for the receptor and reduce the amount of radioligand which binds to the receptor. This is detected as a decreased scintillation signal from that particular incubation. The greater affinity an unknown has for the receptor, the larger the observed decrease in […] to the receptor; thus the assay is in the format of an inhibition study.
# The receptor is a cloned human cDNA expressed in mammalian CHO cells. Membranes prepared from these cells are purchased from Receptor Biology, Baltimore, Md. The reaction buffer is composed as follows: HEPES (50 mM final), MgCl.6H2O (5 mM final), o-phenanthroline (20 mg/l), aprotinin (10 mg/l), Pefabloc SC (250 mg/l), leupeptin (0.5 mg/l), pepstatin A (0.7 mg/l), trypsin inhibitor (25 mg/l), chymostatin (10 mg/l), pH=7.2. Naloxone, 10 uM, is used to define non-specific binding. The assay employs filtration to capture receptor and bound ligand.
# The receptor (membrane) preparation (28 ug protein) is allowed to incubate with the opioid receptor radioligand ([^3H]bremazocine, 2.4 nM) in 96-well plates until equilibrium is reached (>2 hr). Following incubation with the radioligand at 23° C., the well contents are filtered onto 96-well Whatman GF/C filter plates using a Packard cell harvester. Radioligand bound to the receptor also remains on the filter. The filters are rinsed three times with 0.5 mL of physiological saline (0.9% NaCl) to remove any unbound radioligand from the filter. Filters are dried and scintillation fluid is then added to the filters which emits light in proportion to the amount of radioactivity on the filter which is determined using an Packard Topcount scintillation counter. Data are reported as percent inhibition of control binding.
# δ-opioid receptor [2] = molecular target: δ-opioid receptor (Rattus norvegicus, UniProt P33533); assay: Rat brain δ-opioid receptor binding assay ([3H]DPDPE)
# μ-opioid receptor = μ-opioid receptor (Rattus norvegicus, UniProt P33535); assay: Rat brain μ-opioid receptor binding assay ([3H]DAMGO)
# [3] = tested on: acetylcholine bromide-induced abdominal constriction response; assay: Mouse acetylcholine bromide-induced abdominal constriction assay (MAIT); assay type: in vivo; settings: po, 0.5 h, 150 μmole/Kg p.o., acetylcholine bromide 5.5 mg/kg i.p. 30 min later
# Experimental: The mouse acetylcholine-induced abdominal constriction assay, as described by Collier et al. in […]., 32: 295-310, 1968 with minor modifications, was used to assess analgesic potency of the compounds of formula (I). The test drugs or appropriate vehicles were administered orally (p.o.) and 30 min later the animal received an intraperitoneal (i.p.) injection of 5.5 mg/kg acetylcholine bromide (Matheson, Coleman and Bell, East Rutherford, N.J.). The mice were then placed in groups of three into glass bell jars and observed for a ten min observation period for the occurrence of an abdominal constriction response (defined as a wave of constriction and elongation passing caudally along the abdominal wall, accompanied by a twisting of the trunk and followed by extension of the hind limbs). For compounds of the present invention, the percent inhibition of this response to a nociceptive stimulus (equated to % analgesia) was calculated as follows: [formula]
# [4] = rat forebrain preparation, [3H]DPDPE, 25° C., read-out: δ-Opioid Receptor Binding (Ki nM)
# [5] = rat forebrain preparation, [3H]DAMGO, 25° C., read-out: μ-Opioid Receptor Binding (Ki nM)
# δ-opioid receptor (Rattus norvegicus, UniProt P33533), sequence (P33533 whole entry): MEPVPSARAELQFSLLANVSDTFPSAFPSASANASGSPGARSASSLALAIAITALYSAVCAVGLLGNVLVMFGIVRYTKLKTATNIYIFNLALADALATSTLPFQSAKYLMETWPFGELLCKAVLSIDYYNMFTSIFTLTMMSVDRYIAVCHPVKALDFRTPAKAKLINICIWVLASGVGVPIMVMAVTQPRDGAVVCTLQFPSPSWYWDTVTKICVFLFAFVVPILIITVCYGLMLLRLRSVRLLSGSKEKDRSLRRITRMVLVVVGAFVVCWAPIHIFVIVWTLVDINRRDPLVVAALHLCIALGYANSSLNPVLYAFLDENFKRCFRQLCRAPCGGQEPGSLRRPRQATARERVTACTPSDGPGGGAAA
# T1 sequence (P41143 whole entry): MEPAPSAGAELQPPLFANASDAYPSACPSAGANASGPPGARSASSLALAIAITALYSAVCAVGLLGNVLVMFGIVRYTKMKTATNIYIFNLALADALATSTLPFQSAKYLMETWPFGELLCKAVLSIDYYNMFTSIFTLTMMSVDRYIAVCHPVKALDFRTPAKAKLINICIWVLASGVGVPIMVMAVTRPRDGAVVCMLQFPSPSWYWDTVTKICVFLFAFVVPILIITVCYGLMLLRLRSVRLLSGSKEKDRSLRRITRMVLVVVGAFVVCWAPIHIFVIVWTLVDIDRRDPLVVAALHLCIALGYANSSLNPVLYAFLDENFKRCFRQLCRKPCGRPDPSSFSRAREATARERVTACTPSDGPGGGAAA
# μ-opioid receptor, sequence (P33535 whole entry): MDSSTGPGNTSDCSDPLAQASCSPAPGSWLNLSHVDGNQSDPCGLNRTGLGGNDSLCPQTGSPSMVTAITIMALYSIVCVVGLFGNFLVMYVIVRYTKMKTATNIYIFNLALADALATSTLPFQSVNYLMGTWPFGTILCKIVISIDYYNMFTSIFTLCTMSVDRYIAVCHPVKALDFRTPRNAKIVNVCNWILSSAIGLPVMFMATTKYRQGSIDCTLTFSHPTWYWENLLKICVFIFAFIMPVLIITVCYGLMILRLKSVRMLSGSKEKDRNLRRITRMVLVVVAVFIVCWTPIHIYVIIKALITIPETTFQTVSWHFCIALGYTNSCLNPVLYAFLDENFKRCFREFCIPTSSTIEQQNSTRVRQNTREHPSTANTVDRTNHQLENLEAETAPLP
Molecule,inhibition at 25 µM (δ-opioid receptor [1]) [%],Ki (δ-opioid receptor [2]) [nM],Ki (μ-opioid receptor) [nM],inhibition in vivo at 150 µmol/kg [3] [%],Ki (δ-opioid receptor [2]; [4]) [nM],Ki (μ-opioid receptor; [5]) [nM],"δ-Opioid Receptor Binding (% Inhibition), % I @ 25 μM (δ-opioid receptor [1]) [%]"
"CCN1CCN(C(=Nc2ccccc2)c2ccc(C(=O)N(CC)CC)cc2)CC1 [Compound 1, N,N-diethyl-4-[(4-ethyl-1-piperazinyl)(phenylimino)methyl]-benzamide]",106,16,> 10000,40,,,
CCN1CCN(C(=Nc2cccc(Cl)c2)c2ccc(C(=O)N(CC)CC)cc2)CC1 [Compound 3],103,62.6,> 10000,40,,,
"CCN(CC)C(=O)c1ccc(C(=Nc2ccccc2Cl)N2CCN(Cc3ccccc3)CC2)cc1 [Compound 20, 4-[[(2-chlorophenyl)imino][4-(phenylmethyl)-1-piperazinyl]methyl]-N,N-diethyl-benzamide]",,11.8,> 10000,23.1,,,
"CCN1CCN(C(=Nc2cccc(Br)c2)c2ccc(C(=O)N(CC)CC)cc2)CC1 [Compound 4, 4-[[(3-bromophenyl)imino](4-ethyl-1-piperazinyl)methyl]-N,N-diethyl-benzamide]",100,57.6,> 10000,7.7,,,
"CCCN(CCC)C(=O)c1ccc(C(=Nc2ccccc2Cl)N2CCN(CC)CC2)cc1 [Compound 7, 4-[[(2-chlorophenyl)imino](4-ethyl-1-piperazinyl)methyl]-N,N-dipropyl-benzamide]",97,,,,292,3930,
"CCCN(CCC)C(=O)c1ccc(C(=Nc2cc(Cl)cc(Cl)c2)N2CCN(CC)CC2)cc1 [Compound 12, 4-[[(3,5-dichlorophenyl)imino](4-ethyl-1-piperazinyl)methyl]-N,N-dipropyl-benzamide]",98,,,,674,> 10000,
"CCN1CCN(C(=Nc2ccccc2OC)c2ccc(C(=O)OC)cc2)CC1 [Compound 48, 4-[(4-ethyl-1-piperazinyl)[(2-methoxyphenyl)imino]methyl]-benzoic acid methyl ester]",60,,,,,,
4-[[(2-chlorophenyl)imino](4-ethyl-1-piperazinyl)methyl]-benzoic acid methyl ester [Compound 31],,,,,222,> 10000,100
"CCN1CCN(C(=Nc2cccc(F)c2)c2ccc(C(=O)OC)cc2)CC1 [Compound 33, 4-[(4-ethyl-1-piperazinyl)[(3-fluorophenyl)imino]methyl]-benzoic acid methyl ester]",,,,,,,100
"CCN(CC)C(=O)c1ccc(C(=Nc2ccccc2Cl)N2CCN(CCc3cccs3)CC2)cc1 [Compound 21, 4-[[(2-chlorophenyl)imino][4-[2-(2-thienyl)ethyl]-1-piperazinyl]methyl]-N,N-diethyl-benzamide]",,95.3,> 10000,40,,,
"CCCN(CCC)C(=O)c1ccc(C(=Nc2cccc(Br)c2)N2CCN(CC)CC2)cc1 [Compound 5, 4-[[(3-bromophenyl)imino](4-ethyl-1-piperazinyl)methyl]-N,N-dipropyl-benzamide]",100,39.2,5510,14.3,,,
"CCN1CCN(C(=Nc2cc(Cl)cc(Cl)c2)c2ccc(C(=O)N(CC)CC)cc2)CC1 [Compound 13, 4-[[(3,5-dichlorophenyl)imino](4-ethyl-1-piperazinyl)methyl]-N,N-diethyl-benzamide]",100,,,,277,> 10000,
"CCN1CCN(C(=Nc2ccccc2)c2ccc(C(=O)OC)cc2)CC1 [Compound 46, 4-[(4-ethyl-1-piperazinyl)(phenylimino)methyl]-benzoic acid methyl ester]",94,,,26.7,,,
"CCCN(CCC)C(=O)c1ccc(C(=Nc2cccc(F)c2)N2CCN(CC)CC2)cc1 [Compound 8, 4-[(4-ethyl-1-piperazinyl)[(3-fluorophenyl)imino]methyl]-N,N-dipropyl-benzamide]",97,60.7,6890,7.1,,,
"CCN1CCN(C(=Nc2cccc(F)c2)c2ccc(C(=O)OC)cc2)CC1 [Compound 32, 4-[(4-ethyl-1-piperazinyl)[(3-fluorophenyl)imino]methyl]-benzoic acid methyl ester]",97,259,> 10000,,,,
"C=CCN1C[C@H](C)N(/C(=N/c2ccccc2)c2ccc(C(=O)N(CC)CC)cc2)C[C@H]1C [Compound 16, 4-[(E)-[(2S,5R)-2,5-dimethyl-4-(2-propenyl)piperazinyl](phenylimino)methyl]-N,N-diethyl-benzamide]",,,,50,170,4330,
"C=CCN1CCN(C(=Nc2ccccc2Cl)c2ccc(C(=O)N(CC)CC)cc2)CC1 [Compound 19, 4-[[(2-chlorophenyl)imino][4-(2-propenyl)-1-piperazinyl]methyl]-N,N-diethyl-benzamide]",,20.5,7600,40,,,
"CCCN1CCN(C(=Nc2cccc(Cl)c2)c2ccc(C(=O)N(CC)CC)cc2)CC1 [Compound 14, 4-[[(3-chlorophenyl)imino](4-propyl-1-piperazinyl)methyl]-N,N-diethyl-benzamide]",101,177,9530,,,,
"CCCN1CCN(C(=Nc2ccccc2Cl)c2ccc(C(=O)OC)cc2)CC1 [Compound 34, 4-[[(2-chlorophenyl)imino](4-propyl-1-piperazinyl)methyl]-benzoic acid methyl ester]",90,87.3,2070,,,,
"CCCN(CCC)C(=O)c1ccc(C(=Nc2ccccc2F)N2CCN(CC)CC2)cc1 [Compound 11, 4-[(4-ethyl-1-piperazinyl)[(2-fluorophenyl)imino]methyl]-N,N-dipropyl-benzamide]",98,,,,256,> 10000,
"CCN1CCN(C(=Nc2ccccc2Cl)c2ccc(C(=O)N(CC)CC)cc2)CC1 [Compound 6, 4-[[(2-chlorophenyl)imino](4-ethyl-1-piperazinyl)methyl]-N,N-diethyl-benzamide]",103,91.1,> 10000,20,,,
"CCN1CCN(C(=Nc2cccc(OC)c2)c2ccc(C(=O)OC)cc2)CC1 [Compound 47, 4-[(4-ethyl-1-piperazinyl)[(3-methoxyphenyl)imino]methyl]-benzoic acid methyl ester]",91,,,26.7,,,
"CCN1CCN(C(=Nc2cccc(F)c2)c2ccc(C(=O)N(CC)CC)cc2)CC1 [Compound 9, N,N-diethyl-4-[(4-ethyl-1-piperazinyl)[(3-fluorophenyl)imino]methyl]-benzamide]",97,58.5,> 10000,,,,
"CCN1CCN(C(=Nc2cccc(Br)c2)c2ccc(C(=O)OC)cc2)CC1 [Compound 30, 4-[[(3-bromophenyl)imino](4-ethyl-1-piperazinyl)methyl]-benzoic acid methyl ester]",99,,,,638,> 10000,
"CCN1CCN(C(=Nc2cccc(Cl)c2)c2ccc(C(=O)OC)cc2)CC1 [Compound 29, 4-[[(3-chlorophenyl)imino](4-ethyl-1-piperazinyl)methyl]-benzoic acid methyl ester]",97,,,,283,> 10000,
